{
  "source": "paper PMC4511920",
  "about": "(Molecular cancer research : MCR, 2015)",
  "key": {"DYRK1B": {"system": "DYRK1B", "conditions": "Target DYRK1B; NCGC compounds; cited from earlier work"}, "[1]": {"target": "DYRK and CLK family kinases", "conditions": "cited from earlier work"}, "[2]": {"system": "endogenous NKX3.1 in LNCaP cells", "assay": "Endogenous NKX3.1 half-life in LNCaP cells exposed to cycloheximide, immunoblot", "assay_type": "cell-based, human"}},
  "data": [
    {"smiles": "Cc1nc(CNc2ncnc3ccc(-c4ccc5c(c4)OCO5)cc23)cs1", "note": "[NCGC00185963]", "values": [
      {"measurement": "IC50", "setting": "DYRK1B", "result": 1510, "unit": "nM"}
    ]},
    {"smiles": "c1coc(CCNc2ncnc3ccc(-c4ccc5c(c4)OCO5)cc23)c1", "note": "[NCGC00185976]", "values": [
      {"measurement": "IC50", "setting": "DYRK1B", "result": 103, "unit": "nM"}
    ]},
    {"smiles": "CN(Cc1cccs1)c1ncnc2ccc(-c3ccc4c(c3)OCO4)cc12", "note": "[NCGC00185984]", "values": [
      {"measurement": "Kinase specificity (in words)", "setting": "[1]", "result": "no specificity for CLK kinases"},
      {"measurement": "IC50", "setting": "DYRK1B", "result": 72, "unit": "nM"}
    ]},
    {"smiles": "Cc1nc(CN(C)c2ncnc3ccc(-c4ccc5c(c4)OCO5)cc23)cs1", "note": "[NCGC00185981]", "values": [
      {"measurement": "Effect on NKX3.1 half-life / degradation (in words)", "setting": "[2]", "result": "most active compound"},
      {"measurement": "Kinase specificity (in words)", "setting": "[1]", "result": "specificity against both DYRK and CLK family kinases"},
      {"measurement": "IC50", "setting": "DYRK1B", "result": 25, "unit": "nM"}
    ]}
  ]
}
